Test results published in patent US20240277713A1 (Kadmon Corporation, LLC, priority 2022, published 2024).
Marks after values point to notes of the source that are not given here.

System: New Zealand White rabbits
Experiment: Embryo-fetal developmental toxicity study in New Zealand White rabbits (Example 4);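 also: dams given a detailed clinical exam daily GD 6 to 29, about 4 h after dosing, then laparohysterectomy on GD 29 with external, visceral and skeletal fetal examination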

For `CC(C)NC(=O)COc1cccc(-c2nc(Nc3ccc4[nH]ncc4c3)c3ccccc3n2)c1` [belumosudil, 2-{3-[4-(1H-indazol-5-ylamino)-2-quinazolinyl]phenoxy}-N-(propan-2-yl) acetamide], the “Hair sparse, Forefoot/right, times observed/animals affected” value (125 mg base/kg/day, GD 0-29) was 0/0, the “Hair sparse, Forelimb/left, times observed/animals affected” value (125 mg base/kg/day, GD 0-29) was 4/1 and the “Hair sparse, Hind limb/left, times observed/animals affected” value (125 mg base/kg/day, GD 0-29) was 0/0. The “Hair sparse, Inguinal region/right, times observed/animals affected” value (125 mg base/kg/day, GD 0-29) was 4/1, the “Hair sparse, Shoulder/left, times observed/animals affected” value (125 mg base/kg/day, GD 0-29) was 2/1 and the “Hair sparse, Thoracic region, times observed/animals affected” value (125 mg base/kg/day, GD 0-29) was 2/1. For the same molecule, the “Hair sparse, Ventral surface, times observed/animals affected” value (125 mg base/kg/day, GD 0-29) was 19/1, the “Material in pan/bedding, Red, times observed/animals affected” value (125 mg base/kg/day, GD 0-29) was 2/1 and the “Nail missing, Forefoot/left, times observed/animals affected” value (125 mg base/kg/day, GD 0-29) was 0/0. For the same molecule, the “Scabbed area, Ear/left, times observed/animals affected” value (125 mg base/kg/day, GD 0-29) was 0/0, the “Scabbed area, Nose/muzzle, times observed/animals affected” value (125 mg base/kg/day, GD 0-29) was 0/0 and the “Skin discolored, Pale, Entire body, times observed/animals affected” value (125 mg base/kg/day, GD 0-29) was 0/0. The “Swelling, Nose/muzzle, times observed/animals affected” value (125 mg base/kg/day, GD 0-29) was 0/0, the “Swelling, Vulva, times observed/animals affected” value (125 mg base/kg/day, GD 0-29) was 0/0 and the “Thin, times observed/animals affected” value (125 mg base/kg/day, GD 0-29) was 0/0. For the same molecule, the “Fetal Body Weight Genders Combined, % Difference From Control” value (225 mg base/kg/day) was −5.76%, the “Fetal External Malformation: Short Tail, No. Fetuses (incidence)” value (225 mg base/kg/day) was 5 (3.2) and the “Fetal External Malformation: Short Tail, No. Litters (incidence)” value (225 mg base/kg/day) was 2 (10.5). The “Fetal External Malformations, No. Fetuses (incidence)” value (225 mg base/kg/day) was 5 (3.2), the “Fetal External Malformations, No. Litters (incidence)” value (225 mg base/kg/day) was 2 (10.5) and the “Fetal Skeletal Malformations, No. Fetuses (incidence)” value (225 mg base/kg/day) was 19 (12.2). For the same molecule, the “Fetal Skeletal Malformations, No. Litters (incidence)” value (225 mg base/kg/day) was 10 (52.6), the “Fetal Visceral Variations, No. Fetuses (incidence)” value (225 mg base/kg/day) was 12 (7.7) and the “Fetal Visceral Variations, No. Litters (incidence)” value (225 mg base/kg/day) was 8 (42.1). For the same molecule, the “Maternal Body Weight Change GD 0-29, % Difference From Control” value (225 mg base/kg/day) was −24.2%, the “Maternal Body Weight GD 10, % Difference From Control” value (225 mg base/kg/day) was −6.3% and the “Maternal Body Weight GD 13, % Difference From Control” value (225 mg base/kg/day) was −8.0%. For the same molecule, the “Maternal Body Weight GD 16, % Difference From Control” value (225 mg base/kg/day) was −9.2%, the “Maternal Body Weight GD 19, % Difference From Control” value (225 mg base/kg/day) was −8.4% and the “Maternal Body Weight GD 21, % Difference From Control” value (225 mg base/kg/day) was −6.7%. The “Maternal Food Consumption GD 0-29” value (225 mg base/kg/day) was 119.80, the “Maternal Food Consumption GD 0-29, % Difference From Control” value (225 mg base/kg/day) was −17.8% and the “Maternal Food Consumption GD 6-10” value (225 mg base/kg/day) was 61.2^b. For the same molecule, the “Maternal Food Consumption GD 6-19” value (225 mg base/kg/day) was 78.70, the “Maternal Food Consumption GD 6-19, % Difference From Control” value (225 mg base/kg/day) was −49.7% and the “Maternal Food Consumption GD 19-29” value (225 mg base/kg/day) was 155.3^b. The “Mean Fetal Body Weight Females” value (225 mg base/kg/day) was 38.94 g, the “Mean Fetal Body Weight Genders Combined” value (225 mg base/kg/day) was 38.60 g and the “Mean Fetal Body Weight Males” value (225 mg base/kg/day) was 38.92 g. For the same molecule, the “Mean Live Litter Size” value (225 mg base/kg/day) was 7.4, the “Mean Number of Early Resorptions” value (225 mg base/kg/day) was 1.4^a and the “Mean Number of Resorptions (Combined)” value (225 mg base/kg/day) was 1.5^a. The “Mean Postimplantation Loss” value (225 mg base/kg/day) was 17.72 %/Litter, the “Number Litters with Viable Fetuses GD29” value (225 mg base/kg/day) was 19 and the “Number with All Resorptions GD29” value (225 mg base/kg/day) was 2. For the same molecule, the “cervical vertebra(e) centra, hemicentra, fetal incidence” value (225 mg base/kg/day) was 2.6%, the “cervical vertebra(e) centra, hemicentra, litter incidence” value (225 mg base/kg/day) was 21.1% and the “neural arches (thoracic) fused, fetal incidence” value (225 mg base/kg/day) was 1.9%. For the same molecule, the “neural arches (thoracic) fused, litter incidence” value (225 mg base/kg/day) was 10.5%, the “neural arches (thoracic) misaligned, fetal incidence” value (225 mg base/kg/day) was 1.3% and the “neural arches (thoracic) misaligned, litter incidence” value (225 mg base/kg/day) was 10.5%. The “neural arches (thoracic) misshapen, fetal incidence” value (225 mg base/kg/day) was 2.6%, the “neural arches (thoracic) misshapen, litter incidence” value (225 mg base/kg/day) was 21.1% and the “rib(s) branched, fetal incidence” value (225 mg base/kg/day) was 2.6%. The “rib(s) branched, litter incidence” value (225 mg base/kg/day) was 21.2%, the “rib(s) fused, fetal incidence” value (225 mg base/kg/day) was 2.6% and the “rib(s) fused, litter incidence” value (225 mg base/kg/day) was 15.8%. For the same molecule, the “rib(s) misshapen, fetal incidence” value (225 mg base/kg/day) was 1.9%, the “rib(s) misshapen, litter incidence” value (225 mg base/kg/day) was 15.8% and the “short tail (entire), fetal incidence” value (225 mg base/kg/day) was 3.2%. For the same molecule, the “short tail (entire), litter incidence” value (225 mg base/kg/day) was 10.5%, the “sternebra(e) extra, fetal incidence” value (225 mg base/kg/day) was 4.5% and the “sternebra(e) extra, litter incidence” value (225 mg base/kg/day) was 21.1%. For the same molecule, the “sternebra(e) fused, fetal incidence” value (225 mg base/kg/day) was 4.5%, the “sternebra(e) fused, litter incidence” value (225 mg base/kg/day) was 31.6% and the “tail bent (entire), fetal incidence” value (225 mg base/kg/day) was 1.3%. The “tail bent (entire), litter incidence” value (225 mg base/kg/day) was 5.3%, the “ureter malpositioned, litter incidence” value (225 mg base/kg/day) was 26.3% and the “Number Aborted” value (225 mg base/kg/day, 23 females) was 1. The “Number Died” value (225 mg base/kg/day, 23 females) was 1, the “Number Litters with Viable Fetuses GD29” value (225 mg base/kg/day, 23 females) was 19 and the “Number Not Pregnant” value (225 mg base/kg/day, 23 females) was 0. For the same molecule, the “Number with All Resorptions GD29” value (225 mg base/kg/day, 23 females) was 2, the “Activity decreased, times observed/animals affected” value (225 mg base/kg/day, GD 0-29) was 4/1 and the “Feces few/absent, times observed/animals affected” value (225 mg base/kg/day, GD 0-29) was 0/0. For the same molecule, the “Hair discolored, Brown, Anogenital region, times observed/animals affected” value (225 mg base/kg/day, GD 0-29) was 0/0, the “Hair discolored, Brown, Ear/left, times observed/animals affected” value (225 mg base/kg/day, GD 0-29) was 0/0 and the “Hair discolored, Brown, Ear/right, times observed/animals affected” value (225 mg base/kg/day, GD 0-29) was 0/0. The “Hair discolored, Brown, Face, times observed/animals affected” value (225 mg base/kg/day, GD 0-29) was 12/2, the “Hair discolored, Brown, Hind limb/left, times observed/animals affected” value (225 mg base/kg/day, GD 0-29) was 1/1 and the “Hair discolored, Red, Anogenital region, times observed/animals affected” value (225 mg base/kg/day, GD 0-29) was 0/0. The “Hair discolored, Red, Face, times observed/animals affected” value (225 mg base/kg/day, GD 0-29) was 0/0, the “Hair discolored, Red, Forelimb/left, times observed/animals affected” value (225 mg base/kg/day, GD 0-29) was 0/0 and the “Hair discolored, Red, Thoracic region, times observed/animals affected” value (225 mg base/kg/day, GD 0-29) was 0/0. For the same molecule, the “Hair discolored, Yellow, Ear/right, times observed/animals affected” value (225 mg base/kg/day, GD 0-29) was 0/0, the “Hair discolored, Yellow, Face, times observed/animals affected” value (225 mg base/kg/day, GD 0-29) was 14/2 and the “Hair sparse, Anogenital region, times observed/animals affected” value (225 mg base/kg/day, GD 0-29) was 0/0. For the same molecule, the “Hair sparse, Axillary region/left, times observed/animals affected” value (225 mg base/kg/day, GD 0-29) was 3/1, the “Hair sparse, Axillary region/right, times observed/animals affected” value (225 mg base/kg/day, GD 0-29) was 2/1 and the “Hair sparse, Cervical region, times observed/animals affected” value (225 mg base/kg/day, GD 0-29) was 0/0. The “Hair sparse, Ear/left, times observed/animals affected” value (225 mg base/kg/day, GD 0-29) was 0/0, the “Hair sparse, Ear/right, times observed/animals affected” value (225 mg base/kg/day, GD 0-29) was 0/0 and the “Hair sparse, Forefoot/left, times observed/animals affected” value (225 mg base/kg/day, GD 0-29) was 3/1. The “Hair sparse, Forefoot/right, times observed/animals affected” value (225 mg base/kg/day, GD 0-29) was 5/2, the “Hair sparse, Forelimb/left, times observed/animals affected” value (225 mg base/kg/day, GD 0-29) was 0/0 and the “Hair sparse, Hind limb/left, times observed/animals affected” value (225 mg base/kg/day, GD 0-29) was 8/1. The “Hair sparse, Inguinal region/right, times observed/animals affected” value (225 mg base/kg/day, GD 0-29) was 0/0, the “Hair sparse, Shoulder/left, times observed/animals affected” value (225 mg base/kg/day, GD 0-29) was 0/0 and the “Hair sparse, Thoracic region, times observed/animals affected” value (225 mg base/kg/day, GD 0-29) was 1/1. For the same molecule, the “Hair sparse, Ventral surface, times observed/animals affected” value (225 mg base/kg/day, GD 0-29) was 0/0, the “Material in pan/bedding, Red, times observed/animals affected” value (225 mg base/kg/day, GD 0-29) was 2/2 and the “Nail missing, Forefoot/left, times observed/animals affected” value (225 mg base/kg/day, GD 0-29) was 0/0. The “Scabbed area, Ear/left, times observed/animals affected” value (225 mg base/kg/day, GD 0-29) was 0/0, the “Scabbed area, Nose/muzzle, times observed/animals affected” value (225 mg base/kg/day, GD 0-29) was 0/0 and the “Skin discolored, Pale, Entire body, times observed/animals affected” value (225 mg base/kg/day, GD 0-29) was 11/1. For the same molecule, the “Swelling, Nose/muzzle, times observed/animals affected” value (225 mg base/kg/day, GD 0-29) was 0/0, the “Swelling, Vulva, times observed/animals affected” value (225 mg base/kg/day, GD 0-29) was 2/1 and the “Thin, times observed/animals affected” value (225 mg base/kg/day, GD 0-29) was 38/5. The “NOAEL for maternal and developmental toxicity” value (pregnant rabbits) was 50 mg base/kg/day, the “doses at which embryo-fetal effects were observed (abortion, post-implantation loss, malformations, decreased fetal body weight)” value (pregnant rabbits, oral) was no less than 50 mg/kg/day and the “doses at which maternal toxicity (body weight loss and mortality) was observed” value (pregnant rabbits, oral, organogenesis) was no less than 125 mg/kg/day.
